Measurements: patent US20250032623A1, “HETEROBIFUNCTIONAL COMPOUNDS AND THEIR USE IN TREATING DISEASE” (HALDA THERAPEUTICS OPCO, INC., priority 2021, published 2025)
pKd: −log10 of the molar value.

Tests used:
[1] = molecular target: T1, EGFR WT (amino acids 669-1011, Accession Number NP_005219.2) (Homo sapiens, UniProt P00533); assay: KdELECT binding assay (Eurofins Discovery), EGFR WT
T1 construct: purchased Eurofins Discovery; host or cells: bacteria (E. coli, BL21-derived, T7 phage)
Protocol: (§1) Exemplary compounds were tested for ability to bind to EGFR WT (amino acids 669-1011, Accession Number NP_005219.2) or EGFR T790M, L858R (amino acids 669-1011 Accession Number NP_005219.2) expressed from bacteria or mammalian cells, respectively. Compounds were tested using the KdELECT assay at Eurofins Discovery.
(§2) Kinase-tagged T7 phage strains were prepared in an E. coli host derived from the BL21 strain. E. coli were grown to log-phase and infected with T7 phage and incubated with shaking at 32° C. until lysis. The lysates were centrifuged and filtered to remove cell debris. The remaining kinases were produced in HEK-293 cells and subsequently tagged with DNA for qPCR detection. Streptavidin-coated magnetic beads were treated with biotinylated small molecule ligands for 30 minutes at room temperature to generate affinity resins for kinase assays. The liganded beads were blocked with excess biotin and washed with blocking buffer (SeaBlock (Pierce), 1% BSA, 0.05% Tween 20, 1 mM DTT) to remove unbound ligand and to reduce non-specific binding. Binding reactions were assembled by combining kinases, liganded affinity beads, and test compounds in 1× binding buffer (20% SeaBlock, 0.17×PBS, 0.05% Tween 20, 6 mM DTT). Test compounds were prepared as 111× stocks in 100% DMSO. Kd values were determined using an 11-point 3-fold compound dilution series with three DMSO control points. All compounds for Kd measurements are distributed by acoustic transfer (non-contact dispensing) in 100% DMSO. The compounds were then diluted directly into the assays such that the final concentration of DMSO was 0.9%. All reactions performed in polypropylene 384-well plate. Each was a final volume of 0.02 mL. The assay plates were incubated at room temperature with shaking for 1 hour and the affinity beads were washed with wash buffer (1× PBS, 0.05% Tween 20). The beads were then re-suspended in elution buffer (1× PBS, 0.05% Tween 20, 0.5 μM nonbiotinylated affinity ligand) and incubated at room temperature with shaking for 30 minutes. The kinase concentration in the eluates was measured by qPCR.

HEK293 cells = assay: Cellular growth inhibition assay (CellTiter-Glo), HEK293 cells; type: cell-based; conditions: Homo sapiens, 72 h, three days compound treatment, CellTiter-Glo 2.0, read-out: CTG HEK293 GI50
Protocol: (§3) Exemplary compounds were tested for ability to inhibit the proliferation of HEK293 cells or HeLa cells.
(§4) HEK293 and HeLa cells were cultured in DMEM medium supplemented with 10% fetal bovine serum and 1% Penn/Strep. Cells were seeded in white 384-well plates at 500 cells/well in […] complete medium. Following seeding, plates were spun at 300×g for three minutes and cultured at 37° C. with 5% CO2 in a humidified tissue culture incubator.
(§5) After 24 hours, compounds were titrated in 100% DMSO and diluted in complete cell culture medium. […] of compound/media mixture was added to cells to bring total volume in well to […]. DMSO alone was used as a negative control. P lates were then spun at 300×g for three minutes and stored at 37° C. with 5% CO2 for three days.
(§6) On Day 0 and Day 3 of compound treatment, cell viability was quantified with CellTiter-Glo 2.0 reagent (Promega). After equilibrating microplates at room temperature for 30 minutes, 25 μL CellTiter-Glo 2.0 reagent was dispensed into each well to bring total volume to […]. Plates were mixed on shaker for 2 minutes at 500 rpm, followed by a 10-minute incubation at room temperature. Following a quick spin, luminescence readings were measured with an EnVision Plate Reader. Data was normalized to DMSO treated Day 0 and Day 3 readings. A four-parameter non-linear regression curve fit was applied to dose-response data in GraphPad Prism data analysis software to determine the half maximal growth inhibitory concentration (GI50) for each compound.

HeLa cells = assay: Cellular growth inhibition assay (CellTiter-Glo), HeLa cells; type: cell-based; conditions: Homo sapiens, 72 h, three days compound treatment, CellTiter-Glo 2.0, read-out: CTG HELA GI50
Protocol: as §3, §4, §5, §6

[2] = molecular target: T2, EGFR T790M, L858R (amino acids 669-1011 Accession Number NP_005219.2) (Homo sapiens, UniProt P00533, L858R/T790M); assay: KdELECT binding assay (Eurofins Discovery), EGFR T790M, L858R; conditions: read-out: EGFR DM Kd
T2 construct: purchased Eurofins Discovery; host or cells: mammalian cells (HEK-293)
Protocol: as §1, §2

EGFR = molecular target: T3, EGFR (Homo sapiens, UniProt P00533); assay: KdELECT binding assay, EGFR
T3 construct: purchased
Protocol: Exemplary compounds were tested for ability to bind to EGFR.
as §2, with “Compounds were tested using a KdELECT assay. Kinase-tagged” for “Kinase-tagged”

T2 sequence (P00533 669-1011 T790M/L858R): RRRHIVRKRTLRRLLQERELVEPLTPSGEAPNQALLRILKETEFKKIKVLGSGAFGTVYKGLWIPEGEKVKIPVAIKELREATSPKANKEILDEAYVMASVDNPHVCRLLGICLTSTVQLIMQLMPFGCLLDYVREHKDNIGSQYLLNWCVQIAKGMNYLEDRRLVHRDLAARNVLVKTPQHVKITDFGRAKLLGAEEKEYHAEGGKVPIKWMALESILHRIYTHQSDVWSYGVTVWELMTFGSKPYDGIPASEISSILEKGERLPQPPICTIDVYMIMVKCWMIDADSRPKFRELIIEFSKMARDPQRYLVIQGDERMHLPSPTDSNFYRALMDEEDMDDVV
T1 sequence (P00533 669-1011): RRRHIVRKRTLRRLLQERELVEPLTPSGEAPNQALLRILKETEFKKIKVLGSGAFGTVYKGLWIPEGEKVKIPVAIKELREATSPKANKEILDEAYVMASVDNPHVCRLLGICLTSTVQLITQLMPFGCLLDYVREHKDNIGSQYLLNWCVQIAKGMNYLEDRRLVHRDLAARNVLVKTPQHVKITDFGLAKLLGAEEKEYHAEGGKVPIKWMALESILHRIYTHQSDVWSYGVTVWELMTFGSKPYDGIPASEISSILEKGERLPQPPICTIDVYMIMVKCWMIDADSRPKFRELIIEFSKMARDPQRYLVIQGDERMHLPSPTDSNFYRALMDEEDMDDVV
T3 sequence (P00533 25-1210): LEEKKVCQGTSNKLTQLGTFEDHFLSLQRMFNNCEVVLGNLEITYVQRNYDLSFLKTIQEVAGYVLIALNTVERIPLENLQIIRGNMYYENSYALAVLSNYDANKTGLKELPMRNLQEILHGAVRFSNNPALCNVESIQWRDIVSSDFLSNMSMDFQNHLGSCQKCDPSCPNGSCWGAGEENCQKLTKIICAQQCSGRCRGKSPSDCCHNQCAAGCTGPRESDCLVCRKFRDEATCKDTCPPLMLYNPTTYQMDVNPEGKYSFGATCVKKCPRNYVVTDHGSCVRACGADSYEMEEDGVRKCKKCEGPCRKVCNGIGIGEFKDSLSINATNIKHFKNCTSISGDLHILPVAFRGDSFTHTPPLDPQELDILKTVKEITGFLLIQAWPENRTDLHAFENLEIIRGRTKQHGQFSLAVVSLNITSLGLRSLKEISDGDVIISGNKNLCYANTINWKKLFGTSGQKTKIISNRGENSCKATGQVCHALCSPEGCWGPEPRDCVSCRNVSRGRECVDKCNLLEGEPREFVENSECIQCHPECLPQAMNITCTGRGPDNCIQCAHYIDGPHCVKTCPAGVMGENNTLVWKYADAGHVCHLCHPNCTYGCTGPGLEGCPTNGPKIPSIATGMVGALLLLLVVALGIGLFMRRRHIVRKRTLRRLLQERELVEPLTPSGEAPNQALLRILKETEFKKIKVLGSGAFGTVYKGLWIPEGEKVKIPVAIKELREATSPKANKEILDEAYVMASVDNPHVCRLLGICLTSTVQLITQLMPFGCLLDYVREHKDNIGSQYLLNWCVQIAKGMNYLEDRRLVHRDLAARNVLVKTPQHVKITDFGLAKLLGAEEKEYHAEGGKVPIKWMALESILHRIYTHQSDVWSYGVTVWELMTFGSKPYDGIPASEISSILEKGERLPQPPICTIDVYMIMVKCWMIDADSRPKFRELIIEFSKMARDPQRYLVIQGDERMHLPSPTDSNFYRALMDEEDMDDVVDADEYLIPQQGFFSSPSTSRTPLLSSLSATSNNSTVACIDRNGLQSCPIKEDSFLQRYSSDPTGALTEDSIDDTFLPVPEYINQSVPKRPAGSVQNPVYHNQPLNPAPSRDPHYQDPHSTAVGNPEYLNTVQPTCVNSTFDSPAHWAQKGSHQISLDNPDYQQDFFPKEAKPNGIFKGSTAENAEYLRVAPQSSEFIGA

pKd [1]	GI50 (HeLa cells)	pKd [2]	pKd (EGFR)	Structure (SMILES)	GI50 (HEK293 cells)
5.60 to 6.30	0.5 to 1.5 µM	> 7.30	5.60 to 6.30	C=CC(=O)N[C@@H]1CN(c2nc(Nc3cn(CCCNC(=O)c4ccc(Nc5ncc6c(n5)N(C5CCCC5)[C@H](CC)C(=O)N6C)c(OC)c4)nc3OC)c3ncn(C)c3n2)C[C@H]1F [Compound I-131, 4-[(8-cyclopentyl-7-ethyl-5-methyl-6-oxo-7H-pteridin-2-yl)amino]-N-[3-[4-[[2-[(3R,4R)-3-fluoro-4-(prop-2-enoylamino)pyrrolidin-1-yl]-9-methyl-purin-6-yl]amino]-3-methoxy-pyrazol-1-yl]propyl]-3-methoxy-benzamide]	0.5 to 1.5 µM
> 7.30	> 5 µM	> 7.30	> 7.30	C=CC(=O)N[C@@H]1CN(c2nc(Nc3cn(CCCCNS(=O)(=O)c4ccc(Nc5ncc(Br)c(Nc6cccc(F)c6C(N)=O)n5)cc4)nc3OC)c3ncn(C)c3n2)CC1F (stereo partly drawn) [Compound I-150, 2-[[5-bromo-2-[4-[4-[4-[[2-[(4R)-3-fluoro-4-(prop-2-enoylamino)pyrrolidin-1-yl]-9-methyl-purin-6-yl]amino]-3-methoxy-pyrazol-1-yl]butylsulfamoyl]anilino]pyrimidin-4-yl]amino]-6-fluoro-benzamide]	0.5 to 1.5 µM
5.60 to 6.30	< 0.5 µM	> 7.30	> 7.30	C=CC(=O)Nc1cc(Nc2nccc(-c3cn(C)c4ccccc34)n2)c(OC)cc1N(C)CCN(C)CCOCCOCCOCCOCCOCCOCCOCCOCCON(C)C(=O)N1N=C(c2cc(F)ccc2F)SC1(CCCN)c1ccccc1 (centres unmarked) [Compound I-69]	0.5 to 1.5 µM
< 5.60	–	6.30 to 7.30	< 5.60	C=CC(=O)Nc1cc(Nc2nccc(-c3cn(C)c4ccccc34)n2)c(OC)cc1N(C)CCN(C)CCNC(=O)c1ccc(Nc2ncc3c(n2)N(C2CCCC2)[C@H](CC)C(=O)N3C)c(OC)c1 [Compound I-115, 4-[[(7R)-8-cyclopentyl-7-ethyl-5-methyl-6-oxo-7H-pteridin-2-yl]amino]-3-methoxy-N-[2-[2-[5-methoxy-N-methyl-4-[1[4-(1-methylindol-3-yl)pyrimidin-2-yl]amino]-2-(prop-2-enoylamino)anilino]ethyl-methyl-amino]ethyl]benzamide]	0.5 to 1.5 µM
5.60 to 6.30	0.5 to 1.5 µM	> 7.30	5.60 to 6.30	COc1cc(N(C)CCN(C)C)c(NC(=O)/C=C/CN(C)CCCN2CCN(CCCON(C)C(=O)N3N=C(c4cc(F)ccc4F)S[C@@]3(CCCN)c3ccccc3)CC2)cc1Nc1nccc(-c2cn(C)c3ccccc23)n1 [Compound I-146, (2S)-2-(3-aminopropyl)-5-(2,5-difluorophenyl)-N-[3-[4-1[3-[[(E)-4-1[2-[2-(dimethylamino)ethyl-methyl-amino]-4-methoxy-5-1[[4-(1-methylindol-3-yl)pyrimidin-2-yl]amino]anilino]-4-oxo-but-2-enyl]-methyl-amino]propyl]piperazin-1-yl]propoxy]-N-methyl-2-phenyl-1,3,4-thiadiazole-3-carboxamide]	–

Second part, the compound before the results:

Structure (SMILES)	pKd [1]	GI50 (HeLa cells)	pKd [2]	pKd (EGFR)	GI50 (HEK293 cells)
C=CC(=O)Nc1cc(Nc2nccc(-c3cn(C)c4ccccc34)n2)c(OC)cc1N(C)CCN(C)CCOCCOCCOCCOCCOCCOCCOc1ccc(CNc2cc(N3CCCC[C@H]3CCO)nc3c(CC)cnn23)cn1 [Compound I-133]	5.60 to 6.30	< 0.5 µM	> 7.30	5.60 to 6.30	< 0.5 µM
C=CC(=O)Nc1cc(Nc2nccc(-c3cn(C)c4ccccc34)n2)c(OC)cc1N(C)CCN(C)CCOCCOCCOc1ccc(CNc2cc(N3CCCC[C@H]3CCO)nc3c(CC)cnn23)cn1 [Compound I-141, N-[2-[2-[2-[2-[2-[[5-[[[3-ethyl-5-[(2S)-2-(2-hydroxyethyl)-1-piperidyl]pyrazolo[1,5-a]pyrimidin-7-yl]amino]methyl]-2-pyridyl]oxy]ethoxy]ethoxy]ethyl-methyl-amino]ethyl-methyl-amino]-4-methoxy-5-[[4-(1-methylindol-3-yl)pyrimidin-2-yl]amino]phenyl]prop-2-enamide]	6.30 to 7.30	< 0.5 µM	> 7.30	6.30 to 7.30	< 0.5 µM
CC[C@@H]1C(=O)N(C)c2cnc(Nc3ccc(C(=O)NCCOCCOCCN(C)C/C=C/C(=O)Nc4cc(Nc5nccc(-c6cn(C)c7ccccc67)n5)c(OC)cc4N(C)CCN(C)C)cc3OC)nc2N1C1CCCC1 [Compound I-117, 4-[[(7R)-8-cyclopentyl-7-ethyl-5-methyl-6-oxo-7H-pteridin-2-yl]amino]-N-[2-[2-[2-1[[(E)-4-1[2-[2-(dimethylamino)ethyl-methyl-amino]-4-methoxy-5-1[[4-(1-methylindol-3-yl)pyrimidin-2-yl]amino]anilino]-4-oxo-but-2-enyl]-methyl-amino]ethoxy]ethoxy]ethyl]-3-methoxy-benzamide]	< 5.60	–	6.30 to 7.30	< 5.60	0.5 to 1.5 µM
CCC1C(=O)N(C)c2cnc(Nc3ccc(C(=O)NCCOCCOCCN(C)CC=CC(=O)NC4CN(c5nc(Nc6cn(C)nc6OC)c6ncn(C)c6n5)CC4F)cc3OC)nc2N1C1CCCC1 [Compound I-120, 4-[[(7R)-8-cyclopentyl-7-ethyl-5-methyl-6-oxo-7H-pteridin-2-yl]amino]-N-[2-[2-[2-[[(E)-4-1[[(3R,4R)-4-fluoro-1-[6-1[(3-methoxy-1-methyl-pyrazol-4-yl)amino]-9-methyl-purin-2-yl]pyrrolidin-3-yl]amino]-4-oxo-but-2-enyl]-methylamino]ethoxy]ethoxy]ethyl]-3-methoxy-benzamide]	< 5.60	–	6.30 to 7.30	< 5.60	0.5 to 1.5 µM
